{"source": "patent US20120277197A1", "about": "“TIGECYCLINE FORMULATIONS” (WYETH, priority 2008, published 2012)", "origin": "cited, not measured here", "conditions": "cited from earlier work; for activity retained after frozen storage: after 14-23 days of frozen storage"}
{"compound": "C[C@@H](O)[C@H]1C(=O)N2C(C(=O)O)=C(S[C@@H]3CN[C@H](C(=O)Nc4cccc(C(=O)O)c4)C3)[C@H](C)[C@H]12", "note": "[ertapenem]", "values": [{"measurement": "stability of solutions frozen at −20° C.", "setting": "frozen at −20° C.", "result": "extreme variability in stability"}]}
{"compound": "penicillin", "values": [{"measurement": "activity retained after frozen storage", "result": "retained essentially all of their activity"}]}
{"compound": "CC1(C)S[C@@H]2[C@H](NC(=O)C(C(=O)O)c3ccccc3)C(=O)N2[C@H]1C(=O)O", "note": "(some centres unmarked) [carbenicillin]", "values": [{"measurement": "activity retained after frozen storage", "result": "retained essentially all of their activity"}]}
{"compound": "CC(=O)OCC1=C(C(=O)O)N2C(=O)[C@@H](NC(=O)Cc3cccs3)[C@H]2SC1", "note": "[cephalothin]", "values": [{"measurement": "activity retained after frozen storage", "result": "retained essentially all of their activity"}]}
{"compound": "CC1(C)S[C@@H]2[C@H](NC(=O)[C@H](N)c3ccc(O)cc3)C(=O)N2[C@H]1C(=O)O", "note": "[amoxycillin sodium]", "values": [{"measurement": "stability on freezing solutions", "setting": "in normal saline or in glucose", "result": "markedly reduced stability"}]}
